# Assay results from ChEMBL document CHEMBL1201862, “PubChem BioAssay data set” (2004).
#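 48-hour exposure; five concentrations; linearly interpolated endpoints. GI50 is the concentration that inhibits growth by half.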 Calls of active or inactive are those of the source. Cut-off read from the data, not from the text of the source: active = GI50 up to about 1.1 µM and inactive = higher.
# Experiments:
# Experiment in all cases: growth of human tumour cells (NCI), 48 h
# [1] = system: SF-268
# [2] = system: UO-31
# [3] = system: 786-0
# [4] = system: MCF7
# [5] = system: COLO 205
# [6] = system: Hs-578T
# [7] = system: SK-MEL-28
# [8] = system: SNB-19
# [9] = system: TK-10
# [10] = system: LOX IMVI
# [11] = system: RPMI-8226
# [12] = system: T47D
# [13] = system: MDA-N
# [14] = system: HCT-15
# [15] = system: A498
# [16] = system: DU-145
# [17] = system: PC-3
# [18] = system: SK-OV-3
# [19] = system: NCI/ADR-RES
# [20] = system: OVCAR-4
Structure (SMILES),GI50 [1],GI50 [2],GI50 [3],GI50 [4],GI50 [5],GI50 [6],GI50 [7],GI50 [8],GI50 [9],GI50 [10],GI50 [11],GI50 [12],GI50 [13],GI50 [14],GI50 [15],GI50 [16],GI50 [17],GI50 [18],GI50 [19],GI50 [20]
COc1ccc(/C=C2\C[C@H]3[C@@H]4CC=C5C[C@@H](O)CC[C@]5(C)[C@H]4CC[C@]3(C)\C2=N\O)cc1,4.95 µM (inactive),14.3 µM (inactive),14.3 µM (inactive),3.62 µM (inactive),10 µM (inactive),10 µM (inactive),24.2 µM (inactive),25.8 µM (inactive),27.6 µM (inactive),11.6 µM (inactive),2.26 µM (inactive),1.26 µM (inactive),18.8 µM (inactive),6 µM,25.9 µM (inactive),22.4 µM (inactive),8.45 µM (inactive),34.9 µM (inactive),19.4 µM (inactive),51.5 µM (inactive)
CC(=O)NCC1(c2ccccc2)CCN(CC2COc3ccccc3O2)CC1 (stereo not given) [ACOXATRINE],> 100 µM (inactive),> 100 µM (inactive),> 100 µM (inactive),> 100 µM (inactive),> 100 µM (inactive),> 100 µM (inactive),> 100 µM (inactive),> 100 µM (inactive),> 100 µM (inactive),62.2 µM (inactive),> 100 µM (inactive),> 100 µM (inactive),> 100 µM (inactive),> 100 µM,> 100 µM (inactive),> 100 µM (inactive),> 100 µM (inactive),> 100 µM (inactive),> 100 µM (inactive),> 100 µM (inactive)
Cc1cccc(C2ON=C(c3ccccc3)N2C23CC4CC(CC(C4)C2)C3)c1 (stereo not given),> 10 µM (inactive),,> 10 µM (inactive),3.6 µM (inactive),> 10 µM (inactive),> 10 µM (inactive),> 10 µM (inactive),> 10 µM (inactive),> 10 µM (inactive),> 10 µM (inactive),> 10 µM (inactive),> 10 µM (inactive),> 10 µM (inactive),> 10 µM,> 10 µM (inactive),> 10 µM (inactive),> 10 µM (inactive),> 10 µM (inactive),> 10 µM (inactive),> 10 µM (inactive)
COc1cccc(-c2cc(O)c3cc(C)cnc3n2)c1,0.594 µM (active),1.26 µM (inactive),0.0488 µM (active),0.543 µM (active),0.0449 µM (active),0.0495 µM (active),0.0787 µM (active),0.0667 µM (active),,0.0512 µM (active),0.0421 µM (active),> 100 µM (inactive),0.0106 µM (active),0.251 µM,0.0904 µM (active),0.308 µM (active),0.0467 µM (active),0.283 µM (active),0.0295 µM (active),> 67.1 µM (inactive)
COc1ccc(/C=C2\CCC(C)C3=C2NC(=S)NC3c2ccc(OC)c(OC)c2)cc1OC (stereo not given),25.5 µM (inactive),12.6 µM (inactive),22.3 µM (inactive),14.9 µM (inactive),8.59 µM (inactive),30.8 µM (inactive),> 31.6 µM (inactive),30.4 µM (inactive),19.7 µM (inactive),17.4 µM (inactive),5.16 µM (inactive),2.33 µM (inactive),3.83 µM (inactive),9.95 µM,> 31.6 µM (inactive),27.2 µM (inactive),10.7 µM (inactive),29.9 µM (inactive),27.5 µM (inactive),35.4 µM (inactive)
O=C(NO)c1ccc(OCc2ccccc2)cc1,39.7 µM (inactive),22.2 µM (inactive),16.9 µM (inactive),55.8 µM (inactive),22.8 µM (inactive),65.3 µM (inactive),28.1 µM (inactive),33.3 µM (inactive),23.7 µM (inactive),19.1 µM (inactive),12 µM (inactive),11.5 µM (inactive),25.9 µM (inactive),15 µM,16.3 µM (inactive),14.3 µM (inactive),23.3 µM (inactive),37.2 µM (inactive),4 µM (inactive),15 µM (inactive)
C[C@]12CC[C@H]3[C@@H](CC=C4C[C@@H](O)CC[C@@]43C)[C@@H]1CC[C@@H]2N(CCO)CCO,36 µM (inactive),51.8 µM (inactive),19.7 µM (inactive),33.2 µM (inactive),44.3 µM (inactive),45.2 µM (inactive),96.2 µM (inactive),68.1 µM (inactive),42.3 µM (inactive),40.7 µM (inactive),> 100 µM (inactive),86.3 µM (inactive),45.9 µM (inactive),71.4 µM,16.1 µM (inactive),36.6 µM (inactive),50.9 µM (inactive),23.3 µM (inactive),> 100 µM (inactive),> 100 µM (inactive)
Oc1ccc(NCc2cc(O)ccc2O)cc1,17.2 µM (inactive),14.1 µM (inactive),15 µM (inactive),13.9 µM (inactive),23.3 µM (inactive),40.9 µM (inactive),22.3 µM (inactive),18.5 µM (inactive),16 µM (inactive),17.1 µM (inactive),4.99 µM (inactive),19.6 µM (inactive),3.17 µM (inactive),15.6 µM,28.4 µM (inactive),18.5 µM (inactive),14.9 µM (inactive),17.8 µM (inactive),18.4 µM (inactive),16.5 µM (inactive)
O=C1C(N2CCCC2)=CC(=O)c2c(O)c(N3CCCC3)c(Cl)c(O)c21,> 10 µM (inactive),> 10 µM (inactive),> 10 µM (inactive),> 10 µM (inactive),> 10 µM (inactive),> 10 µM (inactive),> 10 µM (inactive),> 10 µM (inactive),> 10 µM (inactive),> 10 µM (inactive),> 10 µM (inactive),> 10 µM (inactive),> 10 µM (inactive),,> 10 µM (inactive),> 10 µM (inactive),> 10 µM (inactive),> 10 µM (inactive),> 10 µM (inactive),> 10 µM (inactive)
Oc1ncnc2c1nnn2CCCCCCCCCCCCn1nnc2c(O)ncnc21,37.7 µM (inactive),25.7 µM (inactive),22.9 µM (inactive),98.6 µM (inactive),> 83.4 µM (inactive),18.9 µM (inactive),> 93.1 µM (inactive),20.2 µM (inactive),24.4 µM (inactive),45.8 µM (inactive),> 100 µM (inactive),0.641 µM (active),> 100 µM (inactive),> 100 µM,25.2 µM (inactive),> 100 µM (inactive),> 100 µM (inactive),17.7 µM (inactive),> 100 µM (inactive),> 90.6 µM (inactive)
CC1=NN=C(C)C1/N=N/c1ccc2[nH]c(C)nc2c1,10.9 µM (inactive),19.2 µM (inactive),34.4 µM (inactive),28.7 µM (inactive),29.6 µM (inactive),5.36 µM (inactive),35.6 µM (inactive),> 100 µM (inactive),14.1 µM (inactive),9.1 µM (inactive),13.7 µM (inactive),5.11 µM (inactive),19.8 µM (inactive),6.68 µM,8.39 µM (inactive),9.23 µM (inactive),27.7 µM (inactive),5.27 µM (inactive),38.4 µM (inactive),58.1 µM (inactive)
NC1=NN(c2ccccc2)C2(O)c3ccncc3C3=NN(c4ccccc4)C(=O)C132 (stereo not given),> 100 µM (inactive),> 100 µM (inactive),> 100 µM (inactive),> 100 µM (inactive),> 100 µM (inactive),> 100 µM (inactive),> 100 µM (inactive),> 100 µM (inactive),,> 100 µM (inactive),> 100 µM (inactive),> 100 µM (inactive),> 100 µM (inactive),> 100 µM,> 100 µM (inactive),> 100 µM (inactive),> 100 µM (inactive),> 100 µM (inactive),> 100 µM (inactive),51.2 µM (inactive)
O=C(O)c1cc2ccccc2c(O)c1O,17.2 µM (inactive),20.5 µM (inactive),14.3 µM (inactive),13.5 µM (inactive),16.8 µM (inactive),8.13 µM (inactive),7.03 µM (inactive),17.9 µM (inactive),21.9 µM (inactive),3.52 µM (inactive),> 52.2 µM (inactive),25.8 µM (inactive),2.14 µM (inactive),19.7 µM,26.9 µM (inactive),18.3 µM (inactive),12.8 µM (inactive),14.8 µM (inactive),19.4 µM (inactive),19 µM (inactive)
CN(C)c1c(C2CC(O)C(CO)O2)c(=O)c1=O (stereo not given),> 100 µM (inactive),> 100 µM (inactive),> 100 µM (inactive),> 100 µM (inactive),,> 100 µM (inactive),> 100 µM (inactive),> 100 µM (inactive),> 100 µM (inactive),> 100 µM (inactive),> 100 µM (inactive),> 100 µM (inactive),> 100 µM (inactive),> 100 µM,> 100 µM (inactive),> 100 µM (inactive),> 100 µM (inactive),> 100 µM (inactive),> 100 µM (inactive),> 100 µM (inactive)
